What was measured:
[1] = tested on: SMN2 minigene (full length SMN2 minigene mRNA containing SMN2 exon 7); assay: SMN2 minigene mRNA splicing RT-qPCR assay in cultured cells; format: cell-based, human; conditions: Homo sapiens, HEK293-H; HEK293H cells stably transfected with SMN2-A minigene; 24 hours; 7-point concentration curve; 1.5-fold relative to vehicle-treated cells; read-out: EC1.5x for production of full length SMN2 mRNA
In short: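 Read-out: full-length (exon 7-included) SMN2 minigene mRNA by multiplex RT-qPCR with GAPDH, efficiency-corrected (1+E)^−Ct, GAPDH-normalized and divided by vehicle. Stably transfected HEK293H cells, 24 h compound exposure, duplicates per concentration. Value is EC1.5x, reported as star ranges.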

Smn protein = Smn protein assay in cultured cells (SMN HTRF); format: cell-based, human; conditions: 48 hours; for maximum fold (Fold) increase of Smn protein: SMA patient fibroblast cells, 7-point concentration data, fold increase relative to vehicle control (SMN HTRF); for EC1.5x (concentration giving 1.5-fold Smn protein increase): SMA Type 1 patient fibroblast cells (GM03813), 7-point concentration curve, SMN HTRF, concentration producing 1.5 times Smn protein vs DMSO vehicle control, read-out: EC1.5x for Smn protein expression
In short: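 Lysates in RIPA with protease inhibitors are incubated overnight at room temperature with HTRF anti-SMN antibodies. EC1.5x is derived from fold increase in ΔF over vehicle.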

Compound	EC (1.5-fold) [1] [µM]	melting point	maximum fold (Fold) increase of Smn protein (Smn protein)	EC1.5x (concentration giving 1.5-fold Smn protein increase) (Smn protein) [nM]
Cc1csc2nc(-c3cc4ccc(N5C[C@@H](C)N[C@@H](C)C5)cc4oc3=O)cn12 [Compound 182, 7-[(3R,5S)-3,5-dimethylpiperazin-1-yl]-3-(3-methylimidazo[2,1-b][1,3]thiazol-6-yl)-2H-chromen-2-one]	1 to 3	211 to 215 °C	** (fold increase between >1.2 and ≤1.35)	
C[C@@H]1CN(c2ccc3cc(-c4cn5cccc(Cl)c5n4)c(=O)oc3c2)CCN1 [Compound 183, 3-(8-chloroimidazo[1,2-a]pyridin-2-yl)-7-[(3R)-3-methylpiperazin-1-yl]-2H-chromen-2-one]	0.3 to 1	215 to 218 °C	** (fold increase between >1.2 and ≤1.35)	
C[C@H]1CN(c2ccc3cc(-c4cn5cccc(Cl)c5n4)c(=O)oc3c2)CCN1 [Compound 184, 3-(8-chloroimidazo[1,2-a]pyridin-2-yl)-7-[(3S)-3-methylpiperazin-1-yl]-2H-chromen-2-one]	0.3 to 1	215 to 217 °C	*** (fold increase between >1.35 and ≤1.5)	
Cc1csc2nc(-c3cc4ccc(N5CCN(C)CC5)cc4oc3=O)cn12 [Compound 185, 3-(3-methylimidazo[2,1-b][1,3]thiazol-6-yl)-7-(4-methylpiperazin-1-yl)-2H-chromen-2-one]	3 to 30	213 to 216 °C	* (maximum fold increase of ≤1.2)	
Cl.O=c1oc2cc(N3CCCNCC3)ccc2cc1-c1cn2cccnc2n1 [Compound 186, 7-(1,4-diazepan-1-yl)-3-(imidazo[1,2-a]pyrimidin-2-yl)-2H-chromen-2-one hydrochloride]	0.1 to 0.3	> 300 °C	*** (fold increase between >1.35 and ≤1.5)	1000 to 3000
CN1CCN(c2ccc3cc(-c4cc5ccccn5n4)c(=O)oc3c2)CC1 [Compound 188, 7-(4-methylpiperazin-1-yl)-3-(pyrazolo[1,5-a]pyridin-2-yl)-2H-chromen-2-one]	0.3 to 1	235 to 237 °C	*** (fold increase between >1.35 and ≤1.5)	3000 to 10000
C[C@@H]1CN(c2ccc3cc(-c4cc5ccccn5n4)c(=O)oc3c2)C[C@H](C)N1 [Compound 189, 7-[(3R,5S)-3,5-dimethylpiperazin-1-yl]-3-(pyrazolo[1,5-a]pyridin-2-yl)-2H-chromen-2-one]	1 to 3	188 to 190 °C	** (fold increase between >1.2 and ≤1.35)	
O=c1oc2cc(N3CCN(CCO)CC3)ccc2cc1-c1cc2ccccn2n1 [Compound 190, 7-[4-(2-hydroxyethyl)piperazin-1-yl]-3-(pyrazolo[1,5-a]pyridin-2-yl)-2H-chromen-2-one]	1 to 3	201 to 205 °C	** (fold increase between >1.2 and ≤1.35)	
O=c1oc2cc(N3CCCNCC3)ccc2cc1-c1cc2ccccn2n1 [Compound 192, 7-(1,4-diazepan-1-yl)-3-(pyrazolo[1,5-a]pyridin-2-yl)-2H-chromen-2-one]	0.3 to 1	178 to 180 °C	** (fold increase between >1.2 and ≤1.35)	
CN1CCCN(c2ccc3cc(-c4cc5ccccn5n4)c(=O)oc3c2)CC1 [Compound 193, 7-(4-methyl-1,4-diazepan-1-yl)-3-(pyrazolo[1,5-a]pyridin-2-yl)-2H-chromen-2-one]	0.1 to 0.3	159 to 163 °C	** (fold increase between >1.2 and ≤1.35)	3000 to 10000
CCN1CCN(c2ccc3cc(-c4cc5ccccn5n4)c(=O)oc3c2)CC1 [Compound 194, 7-(4-ethylpiperazin-1-yl)-3-(pyrazolo[1,5-a]pyridin-2-yl)-2H-chromen-2-one]	0.3 to 1	246 to 248 °C	* (maximum fold increase of ≤1.2)	
CC(C)N1CCN(c2ccc3cc(-c4cc5ccccn5n4)c(=O)oc3c2)CC1 [Compound 196, 7-[4-(propan-2-yl)piperazin-1-yl]-3-(pyrazolo[1,5-a]pyridin-2-yl)-2H-chromen-2-one]	1 to 3	243 to 246 °C	* (maximum fold increase of ≤1.2)	
Cl.O=c1oc2cc(OC3CCNCC3)ccc2cc1-c1cn2cccnc2n1 [Compound 197, 3-(imidazo[1,2-a]pyrimidin-2-yl)-7-(piperidin-4-yloxy)-2H-chromen-2-one hydrochloride]	0.3 to 1	> 310 °C	** (fold increase between >1.2 and ≤1.35)	
CN(C)Cc1ccc2cc(-c3cn4ccsc4n3)c(=O)oc2c1 [Compound 198, 7-[(dimethylamino)methyl]-3-(imidazo[2,1-b][1,3]thiazol-6-yl)-2H-chromen-2-one]	0.3 to 1	135 to 140 °C	**** (fold increase between >1.5 and ≤1.65)	3000 to 10000
CC(C)NCc1ccc2cc(-c3cn4ccsc4n3)c(=O)oc2c1 [Compound 199, 3-(imidazo[2,1-b][1,3]thiazol-6-yl)-7-[(propan-2-ylamino)methyl]-2H-chromen-2-one]	1 to 3	141 to 145 °C	** (fold increase between >1.2 and ≤1.35)	
Cc1ccc2nc(-c3cc4ccc(N5CCCC(N(C)C)C5)cc4oc3=O)cn2c1 (centres unmarked) [Compound 200, 7-[3-(dimethylamino)piperidin-1-yl]-3-(6-methylimidazo[1,2-a]pyridin-2-yl)-2H-chromen-2-one]	3 to 30	167 to 169 °C	* (maximum fold increase of ≤1.2)	
CCN1CCN(c2ccc3cc(-c4cn5ccsc5n4)c(=O)oc3c2)CC1 [Compound 201, 7-(4-ethylpiperazin-1-yl)-3-(imidazo[2,1-b][1,3]thiazol-6-yl)-2H-chromen-2-one]	0.3 to 1	202 to 205 °C	** (fold increase between >1.2 and ≤1.35)	
CN(C)CCN(C)c1ccc2cc(-c3cn4ccsc4n3)c(=O)oc2c1 [Compound 202, 7-{[2-(dimethylamino)ethyl](methyl)amino}-3-(imidazo[2,1-b][1,3]thiazol-6-yl)-2H-chromen-2-one]	0.3 to 1	185 to 188 °C	** (fold increase between >1.2 and ≤1.35)	
CN1CCCN(c2ccc3cc(-c4cn5ccsc5n4)c(=O)oc3c2)CC1 [Compound 203, 3-(imidazo[2,1-b][1,3]thiazol-6-yl)-7-(4-methyl-1,4-diazepan-1-yl)-2H-chromen-2-one]	0.1 to 0.3	228 to 231 °C	**** (fold increase between >1.5 and ≤1.65)	300 to 1000
C[C@@H]1CN(c2ccc3cc(-c4cn5ccsc5n4)c(=O)oc3c2)CCN1 [Compound 204, 3-(imidazo[2,1-b][1,3]thiazol-6-yl)-7-[(3R)-3-methylpiperazin-1-yl]-2H-chromen-2-one]	0.1 to 0.3	233 to 237 °C	*** (fold increase between >1.35 and ≤1.5)	
C[C@H]1CN(c2ccc3cc(-c4cn5ccsc5n4)c(=O)oc3c2)CCN1 [Compound 205, 3-(imidazo[2,1-b][1,3]thiazol-6-yl)-7-[(3S)-3-methylpiperazin-1-yl]-2H-chromen-2-one]	< 0.1	230 to 233 °C	*** (fold increase between >1.35 and ≤1.5)	
O=c1oc2cc(N3CCCNCC3)ccc2cc1-c1cn2ccsc2n1 [Compound 206, 7-(1,4-diazepan-1-yl)-3-(imidazo[2,1-b][1,3]thiazol-6-yl)-2H-chromen-2-one]	0.3 to 1	225 to 230 °C	** (fold increase between >1.2 and ≤1.35)	
CCCN1CCN(c2ccc3cc(-c4cn5cc(C)ccc5n4)c(=O)oc3c2)CC1 [Compound 207, 3-(6-methylimidazo[1,2-a]pyridin-2-yl)-7-(4-propylpiperazin-1-yl)-2H-chromen-2-one]	1 to 3	220 to 222 °C	** (fold increase between >1.2 and ≤1.35)	
CN1CCN(c2ccc3cc(-c4cn5cc(C#N)ccc5n4)c(=O)oc3c2)CC1 [Compound 208, 2-[7-(4-methylpiperazin-1-yl)-2-oxo-2H-chromen-3-yl]imidazo[1,2-a]pyridine-6-carbonitrile]	1 to 3	291 °C (dec.)	* (maximum fold increase of ≤1.2)	
O=c1oc2cc(N3CCNCC3)ccc2cc1-c1cn2cccc(C(F)(F)F)c2n1 [Compound 209, 7-(piperazin-1-yl)-3-[8-(trifluoromethyl)imidazo[1,2-a]pyridin-2-yl]-2H-chromen-2-one]	0.3 to 1	249 to 252 °C	* (maximum fold increase of ≤1.2)	
